Measured values as given in ChEMBL document CHEMBL1764972, “Phomalevones A-C: dimeric and pseudodimeric polyketides from a fungicolous Hawaiian isolate of Phoma sp. (Cucurbitariaceae)” (J Nat Prod, 2011).
In brackets after ≈: the same amount, converted by molar mass. Activity calls are given as the source filed them. The calls are words filed in the database; no cut-off is given here.

What was measured:
[1] = test system: Staphylococcus aureus; assay: Antibacterial activity against Staphylococcus aureus ATCC 29213 at 100 ug/disk by agar disk diffusion assay; assay type: functional; conditions: read-out: IZ
[2] = test system: Bacillus subtilis; assay: Antibacterial activity against Bacillus subtilis ATCC 6051 at 100 ug/disk by agar disk diffusion assay; assay type: functional; conditions: read-out: IZ
[3] = test system: Candida albicans; assay: Antimicrobial activity against Candida albicans ATCC 14053 at 100 ug/disk by agar disk diffusion assay; assay type: functional; conditions: read-out: IZ
[4] = test system: Escherichia coli; assay: Antibacterial activity against Escherichia coli ATCC 25922 at 100 ug/disk by agar disk diffusion assay; assay type: functional; conditions: read-out: IZ
[5] = test system: Aspergillus flavus; assay: Antifungal activity against Aspergillus flavus NRRL 6541 by agar disk diffusion assay; assay type: functional, organism-based
[6] = test system: Aspergillus flavus; assay: Antifungal activity against Aspergillus flavus NRRL 6541 at 200 ug/disk by agar disk diffusion assay; assay type: functional; conditions: read-out: IZ
[7] = test system: Aspergillus flavus; assay: Antifungal activity against Aspergillus flavus NRRL 6541 up to 25 ug/ml by agar disk diffusion assay; assay type: functional, organism-based
[8] = test system: Fusarium verticillioides; assay: Antifungal activity against Gibberella moniliformis NRRL 25457 by agar disk diffusion assay; assay type: functional, organism-based
[9] = test system: Fusarium verticillioides; assay: Antifungal activity against Gibberella moniliformis NRRL 25457 at 200 ug/disk by agar disk diffusion assay; assay type: functional; conditions: read-out: IZ
[10] = test system: Staphylococcus aureus; assay: Antibacterial activity against Staphylococcus aureus ATCC 29213 at 25 ug/disk by agar disk diffusion assay; assay type: functional, organism-based
[11] = test system: Bacillus subtilis; assay: Antibacterial activity against Bacillus subtilis ATCC 6051 at 25 ug/disk by agar disk diffusion assay; assay type: functional, organism-based

## Cc1cc2c(c(O)c1-c1c(C)cc3c(c1O)C(=O)C1=C(O)C=C[C@H](O)[C@]1(C)O3)C(=O)C1=C(O)C=C[C@H](O)[C@]1(C)O2 [PHOMALEVONE A]
[1]
  zone of inhibition at 100 µg/disc: 23 mm
[2]
  zone of inhibition at 100 µg/disc: 36 mm

## Cc1cc(O)c(C(=O)c2c(O)ccc(O)c2C)c(O)c1-c1c(C)cc(O)c(C(=O)c2c(O)ccc(O)c2C)c1O [PHOMALEVONE B]
[1]
  zone of inhibition at 100 µg/disc: 26 mm
[3]
  zone of inhibition at 100 µg/disc: 18 mm
[2]
  zone of inhibition at 100 µg/disc: 38 mm
[4]
  zone of inhibition at 100 µg/disc: 18 mm

## Cc1cc2c(c(O)c1-c1c(C)cc3c(c1O)C(=O)C1=C(O)C=C[C@H](O)[C@]1(C)O3)C(=O)C1=C(O)C=CC(=O)[C@]1(C)O2 [PHOMALEVONE C]
[5]
  IC50: 4 µg/mL (≈ 7.35 µM)
[1]
  zone of inhibition at 100 µg/disc: 22 mm
[6]
  zone of inhibition at 200 µg/disc: 10 mm
[2]
  zone of inhibition at 100 µg/disc: 34 mm
[7]
  Activity: inactive
[8]
  MIC: 10 µg/mL (≈ 18.4 µM)
[9]
  zone of inhibition at 200 µg/disc: 10 mm

## GENTAMICIN SULFATE
[10]
  inhibition zone (IZ): 20 mm
[11]
  inhibition zone (IZ): 20 mm

## NYSTATIN
[5]
  MIC: 10 µg/mL
[8]
  MIC: 10 µg/mL
